Data as given in ChEMBL document CHEMBL3045262, “Synthesis and Insecticidal Activity of Novel 1-Benzoyl-3-phenylurea Derivatives with Polyfluoroethylsulfenyl, -sulfonyl, and-sulfinyl Substituents” (1992).

What was measured:
Type in all cases: functional
Adoxophyes orana = assay: Larvicidal activity against second-instar larvae of Adoxophyes orana infested soybean seedling assessed as mortality at 5 ppm measured after 7 days; conditions: 168 h
Plutella xylostella = assay: Larvicidal activity against second-instar larvae of Plutella xylostella (diamondback moth) infested raddish seedling assessed as mortality at 3.3 ppm sprayed 2 hr prior to infestation measured after 4 days
Spodoptera litura [1] = assay: Larvicidal activity against third-instar larvae of Spodoptera litura infested in soybean seedling assessed as mortality at 2 ppm sprayed 6 days prior to infestation measured after 5 days
Spodoptera litura [2] = assay: Larvicidal activity against third-instar larvae of Spodoptera litura infested in soybean seedling assessed as mortality at 2 ppm sprayed 1 day prior to infestation measured after 5 days

Compound	mortality at 5 ppm (Adoxophyes orana) [%]	mortality at 3.3 ppm (Plutella xylostella) [%]	mortality at 2 ppm (Spodoptera litura [1]) [%]	mortality at 2 ppm (Spodoptera litura [2]) [%]
O=C(NC(=O)c1c(F)cccc1F)Nc1ccc(SC(F)(F)C(F)Cl)cc1Br (stereo not given)	100	95	100	100
O=C(NC(=O)c1c(F)cccc1F)Nc1ccc(S(=O)(=O)C(F)(F)C(F)F)cc1Br	40	65	85	100
O=C(NC(=O)c1c(F)cccc1F)Nc1cc(Cl)c([S+]([O-])C(F)(F)C(F)Cl)cc1Cl (stereo not given)	100	100	100	100
O=C(NC(=O)c1c(F)cccc1F)Nc1cc(Cl)c(SC(F)(F)C(F)F)cc1Cl	100	100	85	100
Cc1c(NC(=O)NC(=O)c2c(F)cccc2F)ccc(SC(F)(F)C(F)F)c1C	100	100	100	100
O=C(NC(=O)c1c(F)cccc1F)Nc1ccc(S(=O)(=O)C(F)(F)C(F)F)cc1Cl	100	95	100	100
O=C(NC(=O)c1c(F)cccc1F)Nc1ccc(S(=O)(=O)C(F)(F)C(F)Cl)cc1 (stereo not given)			0	0
O=C(NC(=O)c1c(F)cccc1F)Nc1ccc(SC(F)(F)C(F)Cl)c(Cl)c1Cl (stereo not given)	100	95	100	100
O=C(NC(=O)c1c(F)cccc1F)Nc1cc(Cl)c([S+]([O-])C(F)(F)C(F)F)cc1Cl (stereo not given)	75	100	100	100
Cc1cc(SC(F)(F)C(F)F)ccc1NC(=O)NC(=O)c1c(F)cccc1F	100	100	100	95
O=C(NC(=O)c1c(F)cccc1F)Nc1ccc([S+]([O-])C(F)(F)C(F)F)c(Cl)c1Cl (stereo not given)	85	100	100	100
Cc1c(NC(=O)NC(=O)c2c(F)cccc2F)ccc(S(=O)(=O)C(F)(F)C(F)F)c1C	100	100	100	100
O=C(NC(=O)c1c(F)cccc1F)Nc1ccc(S(=O)(=O)C(F)(F)C(F)F)cc1F	100	100	100	100
Cc1cc(S(=O)(=O)C(F)(F)C(F)Cl)ccc1NC(=O)NC(=O)c1c(F)cccc1F (stereo not given)	95	100	100	100
O=C(NC(=O)c1c(F)cccc1F)Nc1ccc(S(=O)(=O)C(F)(F)C(F)Cl)cc1F (stereo not given)	100	100	100	100
Cc1cc(SC(F)(F)C(F)Cl)c(C)cc1NC(=O)NC(=O)c1c(F)cccc1F (stereo not given)	95	100	100	100
O=C(NC(=O)c1c(F)cccc1F)Nc1ccc([S+]([O-])C(F)(F)C(F)F)cc1F (stereo not given)	100	100	95	100
O=C(NC(=O)c1c(F)cccc1F)Nc1cc(Cl)c(SC(F)(F)C(F)Cl)cc1Cl (stereo not given)	100	100	100	100

Compound	mortality at 5 ppm (Adoxophyes orana) [%]	mortality at 3.3 ppm (Plutella xylostella) [%]	mortality at 2 ppm (Spodoptera litura [1]) [%]	mortality at 2 ppm (Spodoptera litura [2]) [%]
Cc1cc([S+]([O-])C(F)(F)C(F)Cl)c(C)cc1NC(=O)NC(=O)c1c(F)cccc1F (stereo not given)	100	100	100	100
Cc1cc([S+]([O-])C(F)(F)C(F)F)c(C)cc1NC(=O)NC(=O)c1c(F)cccc1F (stereo not given)	100	100	100	100
O=C(NC(=O)c1c(F)cccc1F)Nc1ccc(SC(F)(F)C(F)Cl)cc1 (stereo not given)	40	100	45	65
Cc1c(NC(=O)NC(=O)c2c(F)cccc2F)ccc(S(=O)(=O)C(F)(F)C(F)Cl)c1C (stereo not given)	100	100	100	100
O=C(NC(=O)c1c(F)cccc1F)Nc1ccc(S(=O)(=O)C(F)(F)C(F)Br)cc1Br (stereo not given)	85	20	95	100
O=C(NC(=O)c1c(F)cccc1F)Nc1ccc(SC(F)(F)C(F)Cl)cc1F (stereo not given)	100	100	100	100
O=C(NC(=O)c1c(F)cccc1F)Nc1cc(Cl)c(S(=O)(=O)C(F)(F)C(F)Cl)cc1Cl (stereo not given)	100	100	95	100
Cc1cc(NC(=O)NC(=O)c2c(F)cccc2F)ccc1S(=O)(=O)C(F)(F)C(F)F	25	100	60	70
O=C(NC(=O)c1c(F)cccc1F)Nc1ccc(S(=O)(=O)C(F)(F)C(F)F)c(Cl)c1Cl	100	95	100	100
Cc1cc(S(=O)(=O)C(F)(F)C(F)Cl)c(C)cc1NC(=O)NC(=O)c1c(F)cccc1F (stereo not given)	100	100	100	100
Cc1cc(S(=O)(=O)C(F)(F)C(F)F)c(C)cc1NC(=O)NC(=O)c1c(F)cccc1F	95	100	100	100
O=C(NC(=O)c1c(F)cccc1F)Nc1cc(Cl)c(S(=O)(=O)C(F)(F)C(F)F)cc1Cl	90	95	95	100
O=C(NC(=O)c1c(F)cccc1F)Nc1ccc([S+]([O-])C(F)(F)C(F)Cl)cc1Cl (stereo not given)	95	95	90	100
O=C(NC(=O)c1c(F)cccc1F)Nc1ccc(SC(F)(F)C(F)Cl)cc1Cl (stereo not given)	100	100	100	100
O=C(NC(=O)c1c(F)cccc1F)Nc1ccc(S(=O)(=O)C(F)(F)C(F)Cl)c(Cl)c1Cl (stereo not given)	100	100	100	100
O=C(NC(=O)c1c(F)cccc1F)Nc1ccc(SC(F)(F)C(F)F)cc1Cl	100	100	100	100
O=C(NC(=O)c1c(F)cccc1F)Nc1ccc([S+]([O-])C(F)(F)C(F)F)cc1 (stereo not given)		100	15	5
O=C(NC(=O)c1c(F)cccc1F)Nc1ccc(S(=O)(=O)C(F)(F)C(F)F)cc1		90	0	0
